From patent US20080216197A1, “Polypeptide Having Function Related to Pyridoxine Biosynthesis, Polynucleotide Coding the Polypeptide, and Those Use” (Genomine, Inc., priority 2005, published 2008)
Counter-ions that a name gives are not always drawn.

Experiments:
[1] = system: Arabidopsis thaliana; assay: PPT treatment of T2 plants grown in Petri dishes (segregation check); type: in vivo; conditions: 12.5 mg/L PPT
[2] = system: mutant Arabidopsis thaliana; assay: Phenotype recovery of mutant T2 plants on pyridoxine-supplemented MS medium; type: in vivo; conditions: 2.5 mg/L pyridoxine-HCl in MS medium, 30 seeds/Petri dish, slight etiolation observed, FIG. 7
Procedure: The analysis of the AtPDX5 domain led to the inference that the AtPDX5 gene might have an enzymatic function involved in the pyridoxine biosynthesis pathway. To examine this, T2 plants of the mutant Arabidopsis thaliana were cultured in Petri dishes containing a 2.5 mg/L pyridoxine-HCl (Sigma, USA)-supplemented MS medium (30 seeds/Petri dish). […] In addition, the etiolation of the mutant plants was believed to be attributed to a low content of pyridoxine in the medium. Based on the fact that the phenotype recovery was induced by the addition of pyridoxine, the AtPDX5 gene is concluded to be directly responsible for pyridoxine biosynthesis. As described hereinbefore, T2 plants of the mutant Arabidopsis thaliana have the phenotype properties of significant growth delay, etiolation throughout leaves, and death in an early stage, and the mutant Arabidopsis thaliana can have the same phenotype as that of the wild-type in the presence of pyridoxine.

Row | Structure (SMILES) | effect on the five plants having a wild-type phenotype [1] | effect on the other 25 plants (etiolation and retarded growth phenotype) [1] | phenotype (growth delay) of the mutant versus the wild-type [2]
1 | CP(=O)(O)CC[C@H](N)C(=O)O [PPT, phosphinothricin] | converted to a fatal phenotype | remained unchanged | 
2 | Cc1ncc(CO)c(CO)c1O [pyridoxine-HCl, 2-methyl-3-hydroxy-4,5-di(hydroxymethyl)pyridine] |  |  | no significant difference in phenotype
